The record followed here is patent publication EP1087941B9, “THIOLESTERS AND USES THEREOF” (THE UNITED STATES OF AMERICA, as represented by THE …, priority 1998, dated 1999).

One data set concerns HIV-1 NL4-3. The data set is described as follows: Virucidal (viral inactivation) assay on MAGI-CCR-5 cells. It counts as cell-based. As for the experimental part:
(§1) The cell-based p24 attachment assay was performed as described in Rice (1995) Science 270:1194-1197. Viral inactivation assays were carried out as described in Rice (1995) Science 270:1194-1197, and Turpin (1997) supra, with minor modifications. Briefly, MAGI-CCR-5 cells were plated (4 x 10^4 cells per well) in flat bottomed 2-cm well plates for 24 h, after which the culture media was removed and compound-treated virus was added. The virus used was obtained by transient transfection of pNL4-3 into HeLa cells yielding the replication competent NL4-3 virus. Virus containing supernatants were treated for 2 h at 37°C after which residual compound was removed by centrifugation (18,000 x g, 1h, 4°C). Virus pellets were resuspended and placed on the MAGI-CCR-5 monolayers and cultured for 48 h. Monolayers were fixed and stained with X-gal solution and blue cells counted.
NCp7 cross-linking is associated with viral inactivation. Whether the ability to crosslink the nucleocapsid protein, as determined by Western blotting, correlated with the ability to inactivate the viruses was tested in a virucidal assay. Virus stocks of HIV-1 NL4-3 were incubated with various thiolester compounds. The virus was obtained by transient transfection of a replication-competent pNL4-3 plasmid into HeLa cells. Residual thiolester was removed by centrifugation. The virus pellet was resuspended in culture media and used to infect MAGI-CCR-5 cells. At 48 hours post-infection, the cells were washed and stained with X-Gal. Compounds 44 and 45 were virucidal with I50 (concentration resulting in 50% virus inactivation) values of 12.3 µM and 13.2 µM, respectively.

The target of a further data set is T1, Sp1 (Homo sapiens, UniProt P08047).
T1 construct: K562 cell nuclear extracts, and antibodies for Sp1 (Spl[PEP2]-G); host or cells: K562 cell nuclear extracts
The data set is described as follows: Sp1 super gel shift EMSA with K562 cell nuclear extracts (specificity). It counts as biochemical. As to conditions: specificity for CCHC versus CCHH zinc finger. As for the experimental part: To determine if compound 44, 45 or 47 binding activity was specific for CCHC zinc fingers, a super gel shift EMSA after treatment of K562 cell nuclear extracts with the compounds was performed. This was followed by super shifting with Spl-specific antibody. Spl was chosen because it is a cellular transcription factor that contains three copies of a classical type CCHH zinc finger motif that are required for Sp1 binding to its DNA target. […] Super gel shifting to determine the specificity of zinc finger reactive compounds was carried out using an Sp1 consensus oligomer (Stratagene, La Jolla, CA), K562 cell nuclear extracts, and antibodies for Sp1 (Spl[PEP2]-G) (extracts and Spl Abs from Santa Cruz Biotechnology, Inc., Santa Cruz, CA). The binding reactions of oligonucleotides with K562 nuclear extract, as well as electrophoretic conditions were carried out as described in the Gelshift Buffer Kit, Stratagene, La Jolla, CA.
In general terms: Mobility shift assays separate free from complexed probe on a gel.

For the next data set, the system named is CEM-SS cells. Description: cells. It counts as cell-based.
The test system of a further data set is U1 cells. The data set is described as follows: Cell viability of TNFα-induced U1 cells. It is filed as cell-based. As to conditions: for cellular toxicity: high test dose of 100 µM; for toxicity: higher dose testing (300 µM). As for the experimental part:
(§2) Thiolester compounds were also tested for their ability to inhibit HIV-1 replication in TNFα-induced U1 and ACH-2 cells. U1 cells were induced with 5 ng/ml of TNFα in the presence of various concentrations of the thiolesters 44, 45 or 47. Forty-eight hours later the cultures were characterized for virus p24 antigen production and cell viability. […] Compound 44 killed 60% of the cells at 200 µM. […] Precursor processing evaluation performed as described by Turpin (1997) Antiviral Chem. Chemother. 8:60-69. Thus, thiolester PATEs initiate intracellular disulfide cross-linking of precursor polyproteins during late phase virus assembly and mediate a direct virucidal effect via an attack on the mature NCp7 retroviral zinc fingers in the cell-free virus.

In data set [1] the test system is HIV-1 replication in TNFα-induced U1. The data set is described as follows: Inhibition of p24 release from TNFα-induced U1 cells. It is filed as cell-based. The procedure:
as §2

The test system of the next data set is virus attachment. The data set is described as follows: Cell-based p24 attachment assay. As to conditions: for IC50: Table 7, high dose test of 100 µM, read-out: Attachment I50. As for the experimental part: as §1
[2] abbreviates: Human immunodeficiency virus 1, NL43, MAGI-CCR5, read-out: Virucidal Activity (I50 µM).
Setting [3] is: Human immunodeficiency virus 1, NL43, MAGI-CCR5, read-out: virucidal I50 (concentration resulting in 50% virus inactivation).
[4] abbreviates: Homo sapiens, CEM-SS, Table 5, 50% cytotoxicity, read-out: Antiviral Activity IC50%.
Where [5] appears, read: Homo sapiens, CEM-SS, Table 6, 50% cytotoxicity, read-out: Antiviral Activity IC50.
Setting [6] is: Human immunodeficiency virus 1, 5 ng/ml TNFα, 48 hours, read-out: inhibition of release of HIV-1 virions (p24) from U1 cells, EC50.
[7] abbreviates: Human immunodeficiency virus 1, Table 9, read-out: U1 Inhibition of p24 (EC50 µM).

What is called EC50 is the concentration that produces a half-maximal response.

Read-outs that look alike come from different tables or passages of the source.

T1 sequence (P08047 whole entry): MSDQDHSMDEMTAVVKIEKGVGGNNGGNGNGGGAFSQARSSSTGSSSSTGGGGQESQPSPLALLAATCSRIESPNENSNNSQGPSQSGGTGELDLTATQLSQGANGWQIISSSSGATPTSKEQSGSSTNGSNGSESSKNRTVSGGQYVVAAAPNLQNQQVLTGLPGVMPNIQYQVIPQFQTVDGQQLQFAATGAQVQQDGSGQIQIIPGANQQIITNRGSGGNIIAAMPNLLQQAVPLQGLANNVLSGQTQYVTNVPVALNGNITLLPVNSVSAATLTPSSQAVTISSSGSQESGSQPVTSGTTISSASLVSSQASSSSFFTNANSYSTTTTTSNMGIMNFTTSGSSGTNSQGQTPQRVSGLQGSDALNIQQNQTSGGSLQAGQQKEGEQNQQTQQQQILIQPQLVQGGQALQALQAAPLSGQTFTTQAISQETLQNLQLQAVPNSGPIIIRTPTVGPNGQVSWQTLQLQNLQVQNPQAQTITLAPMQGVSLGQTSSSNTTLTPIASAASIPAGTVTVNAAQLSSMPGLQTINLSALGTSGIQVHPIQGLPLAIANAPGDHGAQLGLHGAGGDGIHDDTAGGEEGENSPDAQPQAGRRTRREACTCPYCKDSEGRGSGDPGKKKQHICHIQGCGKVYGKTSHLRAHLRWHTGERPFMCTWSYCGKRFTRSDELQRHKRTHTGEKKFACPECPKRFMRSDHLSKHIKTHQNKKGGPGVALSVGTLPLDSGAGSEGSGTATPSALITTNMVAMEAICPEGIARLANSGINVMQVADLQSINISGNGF

As for `CC(=O)NS(=O)(=O)c1ccc(NC(=O)c2ccccc2SC(=O)CCCCBr)cc1` [Compound 44, N-[2-(5-bromovaleroylthio)benzoyl]sulfacetamide], the IC50 was 12.3 µM in the data set with HIV-1 NL4-3 (setting [2]); 12.3 µM with HIV-1 NL4-3 (setting [3]); 184 µM in the data set on CEM-SS cells (setting [4]); 184 µM with CEM-SS cells (setting [5]); > 100 µM in the data set on virus attachment. The “effect on super shifting of Sp1 bound to its DNA target” value (from here on “effect on super shifting of Sp1 bound”) on Sp1 is given as “failed to alter the pattern of super shifting”. In addition, the cells killed in the data set on U1 cells (at 200 µM) turned out to be 60%. In the data set on U1 cells, the cellular toxicity result was “No cellular toxicity was evident”. Further, the EC50 in data set [1] (setting [6]) and in data set [1] (setting [7]) was 94 µM each time. For the same molecule, the “inhibition of virus attachment” value in the data set on virus attachment is given as “did not inhibit”.

For `CC(=O)NS(=O)(=O)c1ccc(NC(=O)c2ccccc2SC(=O)CCCC[n+]2ccccc2)cc1` [Compound 45, N-[2-(5-pyridinio-valeroylthio)benzoyl]sulfacetamide bromide], the IC50 in the data set on HIV-1 NL4-3 (setting [2]) was 13.2 µM; in the data set on HIV-1 NL4-3 (setting [3]), 13.2 µM; in the data set on CEM-SS cells (setting [4]), > 316 µM; with CEM-SS cells (setting [5]) it was > 316 µM; in the data set on CEM-SS cells (Table 10, 50% cytotoxicity, read-out: Antiviral Activity IC50%), > 316 µM; with virus attachment, > 100 µM. The “effect on super shifting of Sp1 bound” value on Sp1 is given as “failed to alter the pattern of super shifting”. Further, in the data set on CEM-SS cells (high test dose of 316 µM), the “toxicity at the high test dose” value was “no toxicity”. For the same molecule, in the data set on U1 cells, the cellular toxicity result is “No cellular toxicity was evident”. In the data set on U1 cells, the toxicity result was “no toxicity”. The EC50 in data set [1] (setting [6]) and in data set [1] (setting [7]) was 42.2 µM in each case. The “inhibition of virus attachment” value in the data set with virus attachment is given as “did not inhibit”.

As to `O=C(CCCC[n+]1ccccc1)Sc1ccccc1C(=O)Nc1ccc(S(=O)(=O)c2ccc([N+](=O)[O-])cc2)cc1` [Compound 47], the IC50 in the data set on HIV-1 NL4-3 (setting [2]) is 2.1 µM; in the data set with HIV-1 NL4-3 (setting [3]), 2.1 µM; in the data set with CEM-SS cells (Homo sapiens, CEM-SS, read-out: Antiviral Activity IC50), > 316 µM; with virus attachment, > 100 µM. Also, the “effect on super shifting of Sp1 bound” value at Sp1 is “failed to alter the pattern of super shifting”. For the same molecule, the cellular toxicity result in the data set with U1 cells is reported as “No cellular toxicity was evident”. Further, the toxicity result with U1 cells was “no toxicity”. The EC50 in data set [1] (Human immunodeficiency virus 1, 48 h, read-out: inhibition of release of HIV-1 virions (p24) from U1 cells, EC50) amounted to 10.7 µM; in data set [1] (Human immunodeficiency virus 1, read-out: U1 Inhibition of p24 (EC50 µM)), 10.7 µM. In the data set on virus attachment, the “inhibition of virus attachment” value was “did not inhibit”.
